From patent US8623898B2, “Glycine transporter inhibiting substances” (Taisho Pharmaceutical Co., Ltd., priority 2009, dated 2014)
pIC50: −log10 of the molar value. Where two headings read alike, the source gives them in different places.

How the values were obtained:
[1] = biological target: T1, human type 1 glycine transporter (GlyT1) (Homo sapiens, UniProt P48067); assay: Glycine uptake inhibition experiment ([3H] glycine uptake in T98G cells); format: cell-based; conditions: [3H] glycine 250 nM, read-out: IC50 (glycine uptake inhibiting activity)
T1 construct: Used in the experiment were T98G cells (glioma cells) developing a human type 1 glycine transporter (GlyT1); endogenous in cells; host or cells: T98G human glioma cells
T1 sequence (P48067 1-706): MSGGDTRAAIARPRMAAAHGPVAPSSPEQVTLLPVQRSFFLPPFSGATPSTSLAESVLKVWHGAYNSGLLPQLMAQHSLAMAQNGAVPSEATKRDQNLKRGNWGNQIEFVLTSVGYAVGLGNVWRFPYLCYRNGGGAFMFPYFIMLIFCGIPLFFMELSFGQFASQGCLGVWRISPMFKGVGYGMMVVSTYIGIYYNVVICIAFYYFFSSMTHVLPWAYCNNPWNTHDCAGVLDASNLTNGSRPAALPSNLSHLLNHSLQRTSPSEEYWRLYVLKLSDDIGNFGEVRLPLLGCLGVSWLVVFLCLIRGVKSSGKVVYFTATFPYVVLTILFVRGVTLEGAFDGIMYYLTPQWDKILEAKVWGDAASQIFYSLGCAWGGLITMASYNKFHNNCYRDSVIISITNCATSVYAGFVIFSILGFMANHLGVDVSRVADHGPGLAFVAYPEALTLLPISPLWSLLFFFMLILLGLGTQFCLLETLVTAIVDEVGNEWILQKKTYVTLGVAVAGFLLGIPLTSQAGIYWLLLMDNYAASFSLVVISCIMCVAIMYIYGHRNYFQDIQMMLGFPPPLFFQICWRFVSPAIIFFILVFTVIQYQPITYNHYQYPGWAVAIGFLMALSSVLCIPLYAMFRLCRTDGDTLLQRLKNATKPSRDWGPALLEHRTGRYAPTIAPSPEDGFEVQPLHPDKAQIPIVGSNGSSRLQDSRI
Experimental: A glycine uptake inhibition experiment was conducted in accordance with the method described in Neuron, 8, 927-935, 1992. Used in the experiment were T98G cells (glioma cells) developing a human type 1 glycine transporter (GlyT1). The T98G cells were seeded in a 96-well plate at a density of 2.0×10^4 cells per well and cultured overnight in a CO2 incubator. The test substance was first dissolved in a 100% DMSO solution and then dissolved in a 10 mM HEPES buffer solution (pH 7.4) supplemented with 150 mM sodium chloride, 1 mM calcium chloride, 5 mM potassium chloride, 1 mM magnesium chloride, 10 mM glucose, and 0.2% bovine serum albumin. After removing the cell culture medium, the test substance was subjected to a 10-min pretreatment. Thereafter, the test substance and [^3H] glycine (final concentration: 250 nM) were added to the cells and reaction was performed at room temperature for 15 minutes. After the end of the reaction, the extracellular fluid was aspirated with a manifold to remove the excess marker glycine present outside of the cells; thereafter, the cells were lysed with an aqueous solution of 0.5 M sodium hydroxide. The glycine content in the cells was determined by measuring the radioactivity in the cell lysate with a liquid scintillation counter. With the amount of glycine uptake in the presence of 10 μM ALX5407 being referred to as the nonspecific uptake, the amount of specific uptake was calculated by subtracting the amount of nonspecific uptake from the total amount of uptake in the absence of 10 μM ALX5407. In addition, glycine uptake inhibiting activity (IC50) was calculated from an inhibition curve for the concentration of the test substance ranging from 10^−9 to 10^−5 M.

[2] = Membrane permeability experiment (PAMPA Evolution); format: in vitro ADME; conditions: artificial lipid GIT-0, pH 4.0, 5.0, 6.2 and 7.4, marker metoprolol
Experimental: In the development of pharmaceuticals, membrane permeability is an important factor to consider from the viewpoint of relationship with the bodily absorption of a medicament to be administered orally. Compounds having high membrane permeability are expected to feature satisfactory absorption by the intestinal tract (see Pharmaceutical Research (2002) Vol. 19, No. 7, 921-925.)
A membrane permeability test was conducted using PAMPA Evolution™ (pION INC.) in accordance with a modified version of the recommended protocol of pION INC. To be more specific, solutions of an assay compound (i.e., a DMSO solution of the compound as diluted by being added to system solutions that had been adjusted to prescribed pHs (4.0, 5.0, 6.2, and 7.4)) were prepared and added to the lower compartment (donor) of a sandwich plate having a lipid bilayer membrane formed of an artificial lipid (GIT-0). An acceptor sink buffer was added to the upper compartment (acceptor) and after the lapse of a prescribed period, the cumulative permeation of the compound was measured by performing UV spectroscopy on the solutions in the donor and acceptor, and the membrane permeability coefficient Pe (×10^−6 cm/sec) was calculated to assay the membrane permeability of the compound.

SMILES	pIC50 [1]	pIC50 ([1]; 15 min, room temperature)	membrane permeability coefficient Pe compared with metoprolol [2]
Cn1cnc(C(=O)N(Cc2cccc(OC(F)(F)F)c2)CC2CCOCC2)c1 [Compound 2]	> 7.00	7.46	higher Pe values than the high permeability marker compound metoprolol
Cn1cnc(C(=O)N(Cc2ccc(OC(F)(F)F)cc2)C2CCOCC2)n1 [Compound 52]	≤ 6.00		
O=C(c1nc[nH]n1)N(Cc1cccc(Cl)c1)C1CCOCC1 [Compound 28]	≤ 6.00		
Cc1cc(CN(C(=O)c2cn(C)cn2)C2CCSCC2)cc(OC(F)(F)F)c1 [Compound 118]	> 7.00	7.95	
O=C(c1nc[nH]n1)N(Cc1ccc(F)c(C(F)(F)F)c1)C1CCOCC1 [Compound 30]	≤ 6.00		
Cn1cnc(C(=O)N(Cc2cccc(OC(F)F)c2)C2CCOCC2)n1 [Compound 67]	> 7.00	7.37	
O=C(c1ncn(C(F)F)n1)N(Cc1cccc(OC(F)(F)F)c1)C1CCOCC1 [Compound 75]	≤ 6.00		
Cn1cnc(C(=O)N(C2CCOCC2)C(c2ccccc2)c2ccccc2)c1 [Compound 108]	≤ 6.00		
Cn1cnc(C(=O)N(Cc2ccc(F)c(Br)c2)C2CCOC(C)(C)C2)c1 (stereo not shown) [Compound 110]			higher Pe values than the high permeability marker compound metoprolol
Cn1cnc(C(=O)N(Cc2cc(Cl)cc(OC(F)(F)F)c2)C2CCOCC2)n1 [Compound 73]	> 7.00	7.72	
Cn1cnc(C(=O)N(CCc2ccccc2Cl)C2CCOCC2)n1 [Compound 47]	≤ 6.00		
Cc1nc(C(=O)N(Cc2cccc(OC(F)(F)F)c2)C2CCOCC2)c[nH]1 [Compound 8]	≤ 6.00		
O=C(c1nc[nH]n1)N(Cc1cccc(OC(F)(F)F)c1)C1CCOCC1 [Compound 19]	≤ 6.00		
CCn1cnc(C(=O)N(Cc2cccc(OC(F)(F)F)c2)C2CCOCC2)n1 [Compound 31]	> 7.00	7.97	
O=C(c1cn(CC(F)(F)F)cn1)N(Cc1cccc(OC(F)(F)F)c1)C1CCOCC1 [Compound 14]	≤ 6.00		
Cn1cnc(C(=O)N(Cc2cccc(C(F)(F)F)c2)C2CCSCC2)c1 [Compound 113]	> 7.00	8.15	
Cc1nc(C(=O)N(Cc2cccc(OC(F)(F)F)c2)C2CCOCC2)cn1C [Compound 9]	≤ 6.00		
Cn1cnc(C(=O)N(Cc2ccc(OC(F)F)c(OC(F)F)c2)C2CCOCC2)n1 [Compound 68]	≤ 6.00		
Cn1cnc(C(=O)N(Cc2cccc(I)c2)C2CCOCC2)n1 [Compound 53]	> 7.00	7.42	
Cn1cnc(C(=O)N(Cc2cccc(C(F)(F)F)c2)C2CCS(=O)(=O)CC2)c1 [Compound 117]	≤ 6.00		
Cn1cc(C(=O)N(Cc2cccc(OC(F)(F)F)c2)C2CCOCC2)nc1Br [Compound 6]	≤ 6.00		
COC(=O)C(Cc1cccc(OC(F)(F)F)c1)N(C(=O)c1cn(C)cn1)C1CCOCC1 (stereo not shown) [Compound 107]	> 7.00	7.52	
CC1CC(N(Cc2ccc(F)c(Br)c2)C(=O)c2cn(C)cn2)CC(C)O1 (stereo not shown) [Compound 111]	≤ 6.00		
Cn1cnc(C(=O)N(Cc2ccc(Cl)c(OC(F)(F)F)c2)C2CCOCC2)n1 [Compound 69]	> 7.00	7.53	
Cn1cnc(C(=O)N(Cc2cc(OC(F)(F)F)ccc2F)C2CCOCC2)n1 [Compound 63]	≤ 6.00		
CCn1cnc(C(=O)N(Cc2ccc(F)c(C(F)(F)F)c2)C2CCOCC2)n1 [Compound 45]	> 7.00	7.49	

Continued, in another order:

pIC50 [1]	pIC50 ([1]; 15 min, room temperature)	SMILES	membrane permeability coefficient Pe compared with metoprolol [2]
≤ 6.00		O=C(c1c[nH]cn1)N(Cc1cccc(Cl)c1)C1CCOCC1 [Compound 26]	higher Pe values than the high permeability marker compound metoprolol
> 7.00		COc1cccc(CN(C(=O)c2cn(C)cn2)C2CCOCC2)c1 [Compound 23]	
> 7.00	7.35	Cn1cnc(C(=O)N(Cc2ccc(F)c(-c3ccccc3F)c2)C2CCOCC2)n1 [Compound 88]	
> 7.00	8.23	Cn1cnc(C(=O)N(Cc2ccc(F)c(Cl)c2)C2CCOCC2)c1 [Compound 24]	higher Pe values than the high permeability marker compound metoprolol
> 7.00	7.71	Cn1cnc(C(=O)N(CCC2CCOCC2)Cc2cccc(OC(F)(F)F)c2)c1 [Compound 1]	
> 7.00	7.34	Cn1cnc(C(=O)N(Cc2ccc(F)c(Br)c2)C2CCOCC2)n1 [Compound 57]	
> 7.00	8.51	CCn1cnc(C(=O)N(Cc2cccc(OC(F)(F)F)c2)C2CCOCC2)c1 [Compound 13]	
> 7.00	7.57	Cn1cnc(C(=O)N(Cc2ccc(F)c(-c3ccc(C(F)(F)F)cc3)c2)C2CCOCC2)c1 [Compound 104]	
> 7.00	7.69	Cn1cnc(C(=O)N(Cc2ccc(F)c(-c3ccc(OC(F)(F)F)cc3)c2)C2CCSCC2)c1 [Compound 112]	
≤ 6.00		COCCn1cnc(C(=O)N(Cc2cccc(OC(F)(F)F)c2)C2CCOCC2)c1 [Compound 20]	
> 7.00	7.57	Cn1cnc(C(=O)N(Cc2cc(F)cc(C(F)(F)F)c2)C2CCOCC2)c1 [Compound 42]	
> 7.00	8.39	Cn1cnc(C(=O)N(Cc2ccc(F)c(C(F)(F)F)c2)C2CCOCC2)c1 [Compound 25]	
≤ 6.00		Cn1cnc(C(=O)N(Cc2ccc(-c3ccccc3)cc2)C2CCOCC2)c1 [Compound 44]	
> 7.00	7.39	Cn1cnc(C(=O)N(Cc2ccc(F)c(-c3cccc(CCC#N)c3)c2)C2CCOCC2)c1 [Compound 101]	
≤ 6.00		O=C(c1nc[nH]n1)N(Cc1ccc(F)c(Cl)c1)C1CCOCC1 [Compound 29]	
> 7.00		Cn1cnc(C(=O)N(Cc2ccc(F)c(-c3cccc(CO)c3)c2)C2CCOCC2)n1 [Compound 78]	
> 7.00	7.38	CCCOc1cccc(-c2cc(CN(C(=O)c3ncn(C)n3)C3CCOCC3)ccc2F)c1 [Compound 93]	
> 7.00	7.98	COC(=O)c1cccc(-c2cc(CN(C(=O)c3ncn(C)n3)C3CCOCC3)ccc2F)c1 [Compound 77]	
> 7.00	8.12	Cn1cnc(C(=O)N(Cc2ccc(F)c(-c3cccc(CO)c3)c2)C2CCOCC2)c1 [Compound 94]	
> 7.00		Cn1cnc(C(=O)N(CCOc2ccc(Cl)cc2)C2CCOCC2)c1 [Compound 36]	
> 7.00		Cn1cnc(C(=O)N(CCOc2ccc(Cl)c(Cl)c2)C2CCOCC2)c1 [Compound 39]	
> 7.00	7.79	Cc1ccc(-c2cc(CN(C(=O)c3cn(C)cn3)C3CCOCC3)ccc2F)cc1 [Compound 105]	
> 7.00	7.79	Cn1cnc(C(=O)N(Cc2ccc(F)c(-c3ccc(F)cc3)c2)C2CCSCC2)c1 [Compound 114]	
> 7.00	8.42	Cn1cnc(C(=O)N(Cc2ccc(F)c(Br)c2)C2CCOCC2)c1 [Compound 102]	
